This is an account of results in PMC10060569 (Frontiers in Pharmacology, 2023).

The target in this assay is T1, S15V-hP2X3R (Homo sapiens, UniProt P56373, S15V).
T1 construct: expressed in transfected cells; host or cells: Xenopus laevis oocytes (cRNA injection)
T1 sequence (P56373 1-397 S15V): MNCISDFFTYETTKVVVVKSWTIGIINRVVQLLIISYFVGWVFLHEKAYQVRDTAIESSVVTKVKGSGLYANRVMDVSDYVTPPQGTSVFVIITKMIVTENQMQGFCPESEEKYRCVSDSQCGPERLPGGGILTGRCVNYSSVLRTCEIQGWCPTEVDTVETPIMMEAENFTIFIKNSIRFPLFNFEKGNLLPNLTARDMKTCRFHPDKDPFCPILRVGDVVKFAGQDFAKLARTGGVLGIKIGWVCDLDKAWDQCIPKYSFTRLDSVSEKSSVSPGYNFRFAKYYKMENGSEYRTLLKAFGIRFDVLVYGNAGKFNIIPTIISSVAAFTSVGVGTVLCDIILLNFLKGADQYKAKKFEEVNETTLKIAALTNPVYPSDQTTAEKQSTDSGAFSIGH
Briefly: TEVC of ATP-induced currents, S15V-hP2X3R expressed in X. laevis oocytes (peak current protocol). It is filed as cell-based. Particulars: for IC50: 30-s preincubation of antagonist, X. laevis oocytes, −60 mV, geometric mean. From the text: Oocyte expression plasmids encoding the wild-type (wt) and N-terminally His-tagged (His-) fusion constructs of the hP2X2R, hP2X3R, hP2X4R, and hP2X7R, and the mutant His-^20RMVL^23KVIV^23S^26N-hP2X1R, S^15V-rP2X3R, and His-S^15V-hP2X3R were the same as used in previous research ([Hausmann et al., 2006]; [Wolf et al., 2011]; [Hausmann et al., 2014]; [Obrecht et al., 2019]). In most cases, the N-terminal His-tagged variants of P2XRs were used here and in the previous studies to allow biochemical analyses on affinity-purified proteins using the same constructs. Although this was not required for the present study, it allows for better comparability with our previous studies. Capped cRNAs of different P2XRs were already available in the research group or were synthesized as previously described ([Schmalzing et al., 1991]; [Stolz et al., 2015]). cRNA was injected into collagenase-defolliculated X. laevis oocytes in aliquots of 41 nl or 23 nl (see Supplementary Table S1 for the amount of cRNA used for expression of the indicated P2XR) using a Nanoliter 2000 injector (World Precision Instruments, Sarasota, United States of America) as described previously ([Hausmann et al., 2014]; [Stolz et al., 2015]; [Obrecht et al., 2019]). To express the heteromeric hP2X2/3 receptor, cRNAs encoding His-hP2X2R and wt-hP2X3R were coinjected at a ratio (w/w) of 1:6. Oocytes were stored at 19°C in an oocyte ringer solution (ORi^+) containing 90 mM NaCl, 1 mM KCl, 1 mM CaCl2, 1 mM MgCl2, and 10 mM HEPES (Carl Roth, Karlsruhe, Germany) adjusted to pH 7.4 with NaOH and supplemented with 50 μg/ml gentamicin (AppliChem, Darmstadt, Germany). The procedures followed for the maintenance of and the surgical treatment for X. laevis adults were approved by the governmental animal care and use committee of the State Agency for Nature, Environment, and Consumer Protection (LANUV, Recklinghausen, Germany; reference no. 81-02.04.2019. A355), in compliance with Directive 2010/63/EU of the European Parliament and of the Council on the protection of animals used for scientific purpose.
Ion currents mediated by P2X receptors were evoked by the indicated concentration of ATP or α,β-meATP and were recorded 1 or 2 days after cRNA injection at ambient temperature at a holding potential of −60 mV by two-electrode voltage clamp (TEVC) as previously described ([Hausmann et al., 2006]). Calcium-free ORi^− solution (90 mM NaCl, 1 mM KCl, 2 mM MgCl2, 10 mM HEPES, pH 7.4) was used to avoid bias due to calcium-activated chloride channels (CaCC) endogenously expressed in X. laevis oocytes ([Miledi, 1982]; [Methfessel et al., 1986]). For recordings of wt-hP2X7R, the composition of the ORi^− solution was modified according to protocols described previously and contained 100 mM NaCl, 2.5 mM KCl, 1 mM MgCl2, 5 mM HEPES, pH 7.4 ([Klapperstück et al., 2000]). The oocytes were continuously superfused with ORi^− by gravity flow (5–10 ml/min). The agonists ATP or α,β-meATP and the investigated NSAIDs were diluted in ORi^− on the day of the recording. […] A peak current protocol (Supplementary Figure S1) was used to analyze fast- and intermediate desensitizing P2XR subtypes (P2X1R, P2X3R, and S^15V-P2X3R), and a steady-state protocol (Supplementary Figure S2) was used for slowly or partially desensitizing P2X subtypes (P2X2R, P2X2/3R, and P2X4R). For recordings of P2X7R, a modified steady-state protocol was used ([Hausmann et al., 2006]). The application of different bath solutions was controlled by computer-operated magnetic valves controlled by the CellWorks E 5.5.1 software (npi electronic, Tamm, Germany).
Antagonist concentration–response data and IC50 values were calculated by normalizing ATP-induced responses to the control responses (recorded in the presence and absence of the antagonist, respectively). […]

The term IC50 denotes the concentration that gives 50% inhibition. Read a low IC50 as greater potency. The inhibition is the relative decrease from the control value, in per cent.

The molecule `Cc1c(Nc2ncccc2C(=O)O)cccc1C(F)(F)F` [Flunixin, flunixin] showed an IC50 (1 µM ATP) of 32.4 µM. Moreover, under “1 mM antagonist, 1 µM ATP, mean ± SEM, read-out: Max. inhibition at 1 mM”, the inhibition at 1000 µM worked out at 53%. Besides, the “reversibility of the inhibitory effect by washout” value (subsequent control current after washout) is recorded as “not reversible”.
Turning to `CC(C)Cc1ccc(C(C)C(=O)O)cc1` (stereo not drawn) [Ibuprofen, ibuprofen], where the note is “1 µM ATP”, the IC50 is greater than 300 µM and the “reduction of ATP-induced current amplitude at 100 µM antagonist” value is listed as 15%–18%.
Taken in the same sequence, the figures for `Cc1ccc(Cl)c(Nc2ccccc2C(=O)O)c1Cl` [Meclofenamic acid, meclofenamic acid] were greater than 300 µM and 15%–18%.
Regarding `COc1ccc2cc([C@H](C)C(=O)O)ccc2c1` [Naproxen, naproxen], where the note is “1 µM ATP”, the IC50 was greater than 300 µM and the “reduction of ATP-induced current amplitude at 100 µM antagonist” value is listed as 15%–18%.
